From PMC3268193 (British Journal of Pharmacology, 2012)
Numbering of substitutions follows the chain as printed.

Key:
Assay type in all cases: cell-based
P2X1 Cys2(1-6) chimera = target: T1, P2X1 Cys2(1-6) chimera (Homo sapiens, UniProt P51575, A118P/A137L/A141G/A151Y/D154G/DEL120-123/E128S/F152Y/G124S/G131D/I144L/I161V/INS125RVHNAT/INS150P/K127L/K136E/K138D/K140L/K148R/N153Q/P134A/Q142N/R139M/S130A/T133V/T155P/V156S); test: Two-electrode voltage clamp, chimera P2X1 Cys2; conditions: P2X1 Cys2(1–6)
T1 sequence (P51575 with tags, fused parts or gaps A118P/DEL120-123/G124S/INS125RVHNAT/K127L/E128S/S130A/G131D/T133V/P134A/K136E/A137L/K138D/R139M/K140L/A141G/Q142N/I144L/K148R/INS150P/A151Y/F152Y/N153Q/D154G/T155P/V156S/I161V): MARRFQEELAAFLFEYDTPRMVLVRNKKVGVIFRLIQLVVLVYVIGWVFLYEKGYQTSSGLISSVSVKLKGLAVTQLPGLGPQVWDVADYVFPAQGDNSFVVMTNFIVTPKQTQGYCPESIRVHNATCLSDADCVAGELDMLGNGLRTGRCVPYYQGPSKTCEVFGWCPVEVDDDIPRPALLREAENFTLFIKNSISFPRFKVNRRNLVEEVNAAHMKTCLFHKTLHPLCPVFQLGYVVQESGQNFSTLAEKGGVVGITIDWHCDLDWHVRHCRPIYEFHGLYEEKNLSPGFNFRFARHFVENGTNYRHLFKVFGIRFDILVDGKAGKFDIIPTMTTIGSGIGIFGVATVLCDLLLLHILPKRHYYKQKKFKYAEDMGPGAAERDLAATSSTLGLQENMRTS

[1] = target: T2, P2X1 receptor mutant KAKRK → EADML(4) (Homo sapiens, UniProt P51575, K136E/K138D/K140L/R139M); test: Two-electrode voltage clamp, P2X1 mutant X1-EADML
T2 sequence (P51575 1-399 K136E/K138D/R139M/K140L): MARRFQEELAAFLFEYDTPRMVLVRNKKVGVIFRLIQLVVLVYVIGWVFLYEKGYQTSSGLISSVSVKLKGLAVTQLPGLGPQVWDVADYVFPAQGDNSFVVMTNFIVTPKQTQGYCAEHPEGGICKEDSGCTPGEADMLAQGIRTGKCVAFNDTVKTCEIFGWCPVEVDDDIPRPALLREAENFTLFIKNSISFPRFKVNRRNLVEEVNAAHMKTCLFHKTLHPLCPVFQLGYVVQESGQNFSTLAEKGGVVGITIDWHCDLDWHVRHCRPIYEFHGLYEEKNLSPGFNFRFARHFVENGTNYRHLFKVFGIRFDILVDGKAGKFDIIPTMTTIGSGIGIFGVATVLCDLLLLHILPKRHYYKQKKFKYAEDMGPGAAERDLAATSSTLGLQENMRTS

[2] = target: T3, P2X1 receptor mutant KAKRK → ELDML(5) (Homo sapiens, UniProt P51575, A137L/K136E/K138D/K140L/R139M); test: Two-electrode voltage clamp, P2X1 mutant X1-ELDML
T3 sequence (P51575 1-399 K136E/A137L/K138D/R139M/K140L): T2 sequence (P51575 1-399 K136E/K138D/R139M/K140L) with A137L

Reduction in NF449 sensitivity compared with P2X1 WT (P2X1 Cys2(1-6) chimera): ~300 fold | Hill slope of NF449 inhibition curve (P2X1 Cys2(1-6) chimera; vs EC90 ATP): 1.38 ± 0.07 | Reduction in NF449 sensitivity compared with WT P2X1 [1]: ~600 fold | Reduction in NF449 sensitivity compared with WT P2X1 [2]: ~700 fold
SMILES: O=C(Nc1cc(C(=O)Nc2ccc(S(=O)(=O)O)cc2S(=O)(=O)O)cc(C(=O)Nc2ccc(S(=O)(=O)O)cc2S(=O)(=O)O)c1)Nc1cc(C(=O)Nc2ccc(S(=O)(=O)O)cc2S(=O)(=O)O)cc(C(=O)Nc2ccc(S(=O)(=O)O)cc2S(=O)(=O)O)c1 [NF449, 4,4′,4′′,4′′′-(carbonylbis(imino-5,1,3-benzenetriyl-bis(carbonylimino)))tetrakis-benzene-1,3-disulphonic acid]
